{
  "source": "PubChem BioAssay AID256",
  "about": "(DTP/NCI, 2004)",
  "system": "CD2F1 mice, L1210 leukemia ip, survival T/C",
  "test": "NCI In Vivo Anticancer Drug Screen. Data for tumor model L1210 Leukemia (intraperitoneal) in CD2F1 (CDF1) mice",
  "details": "endpoint: mean survival time, higher = longer survival",
  "in_short": "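Transplantable tumor in mice; compound-treated vs vehicle-treated groups. Read-out = treated/control ratio of the measured endpoint.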",
  "key": {"[1]": {"details": "dose: 100.0 mg/kg/injection, schedule: Q04DX003 (ip), vehicle: saline with Tween-80"}, "[2]": {"details": "dose: 200.0 mg/kg/injection, schedule: Q04DX003 (ip), vehicle: saline with Tween-80"}, "[3]": {"details": "dose: 100.0 mg/kg/injection, schedule: Q01DX001 (ip), vehicle: saline with Tween-80"}, "[4]": {"details": "dose: 100.0 mg/kg/injection, schedule: Q01DX009 (ip), vehicle: saline with Tween-80"}, "[5]": {"details": "dose: 200.0 mg/kg/injection, schedule: Q01DX001 (ip), vehicle: saline with Tween-80"}, "[6]": {"details": "dose: 200.0 mg/kg/injection, schedule: Q01DX009 (ip), vehicle: saline with Tween-80"}, "[7]": {"details": "dose: 400.0 mg/kg/injection, schedule: Q01DX001 (ip), vehicle: saline with Tween-80"}, "[8]": {"details": "dose: 400.0 mg/kg/injection, schedule: Q01DX009 (ip), vehicle: saline with Tween-80"}},
  "note": "Values joined by “and” are separate entries in the source; they are usually repeats but may differ in a detail not shown here. Identical values can stand only once. Inconclusive results and toxic doses are left out.",
  "data": [
    {"smiles": "[Br][Pt+2][Br].[NH-]C1CCCCC1[NH-]", "note": "(stereo not given)", "values": [
      {"measurement": "T/C", "setting": "dose: 0.78 mg/kg/injection, schedule: Q04DX003 (ip), vehicle: saline with Tween-80", "result": "110 % of control"},
      {"measurement": "T/C", "setting": "dose: 1.56 mg/kg/injection, schedule: Q04DX003 (ip), vehicle: saline with Tween-80", "result": "113 % of control"}
    ]},
    {"smiles": "COC(=O)C(CC(C)C)NC(=O)C(CSC(c1ccccc1)(c1ccccc1)c1ccccc1)NC(c1ccccc1)(c1ccccc1)c1ccccc1", "note": "(stereo not given)", "values": [
      {"measurement": "T/C", "setting": "dose: 50.0 mg/kg/injection, schedule: Q01DX009 (ip), vehicle: saline", "result": "97 % of control"},
      {"measurement": "T/C", "setting": "dose: 100.0 mg/kg/injection, schedule: Q01DX009 (ip), vehicle: saline", "result": "97 % of control"},
      {"measurement": "T/C", "setting": "dose: 200.0 mg/kg/injection, schedule: Q01DX009 (ip), vehicle: saline", "result": "92 % of control"},
      {"measurement": "T/C", "setting": "dose: 400.0 mg/kg/injection, schedule: Q01DX009 (ip), vehicle: saline", "result": "97 % of control"}
    ]},
    {"smiles": "CN(C)c1ccc(/C=C2\\CCC/C(=C\\c3ccc(N(C)C)cc3)C2=O)cc1", "values": [
      {"measurement": "T/C", "setting": "dose: 100.0 mg/kg/injection, schedule: Q01DX009 (ip), vehicle: Klucel (hydroxypropylcellulose) (HPC)", "result": "95 % of control"},
      {"measurement": "T/C", "setting": "dose: 200.0 mg/kg/injection, schedule: Q01DX009 (ip), vehicle: Klucel (hydroxypropylcellulose) (HPC)", "result": "101 % of control"},
      {"measurement": "T/C", "setting": "dose: 400.0 mg/kg/injection, schedule: Q01DX009 (ip), vehicle: Klucel (hydroxypropylcellulose) (HPC)", "result": "95 % of control"}
    ]},
    {"smiles": "CCOc1c(F)ccc(F)c1-c1c(F)ccc(F)c1OCC", "values": [
      {"measurement": "T/C", "setting": "[1]", "result": "98 % of control"},
      {"measurement": "T/C", "setting": "[2]", "result": "95 % of control"},
      {"measurement": "T/C", "setting": "dose: 400.0 mg/kg/injection, schedule: Q04DX003 (ip), vehicle: saline with Tween-80", "result": "106 % of control"}
    ]},
    {"smiles": "S=C=NCc1cccc(CN=C=S)c1", "values": [
      {"measurement": "T/C", "setting": "dose: 1.5 mg/kg/injection, schedule: Q01DX009 (ip), vehicle: saline with Tween-80", "result": "98 % of control"},
      {"measurement": "T/C", "setting": "dose: 3.0 mg/kg/injection, schedule: Q01DX009 (ip), vehicle: saline with Tween-80", "result": "101 % of control"},
      {"measurement": "T/C", "setting": "dose: 6.25 mg/kg/injection, schedule: Q04DX003 (ip), vehicle: saline", "result": "101 % of control"},
      {"measurement": "T/C", "setting": "dose: 12.5 mg/kg/injection, schedule: Q04DX003 (ip), vehicle: saline", "result": "103 % of control"},
      {"measurement": "T/C", "setting": "dose: 25.0 mg/kg/injection, schedule: Q04DX003 (ip), vehicle: saline", "result": "101 % of control"}
    ]},
    {"smiles": "Nc1n[n+](-c2ccccc2)no1", "values": [
      {"measurement": "T/C", "setting": "dose: 1.56 mg/kg/injection, schedule: Q01DX009 (ip), vehicle: water", "result": "106 % of control"},
      {"measurement": "T/C", "setting": "dose: 3.12 mg/kg/injection, schedule: Q01DX009 (ip), vehicle: water", "result": "97 % of control and 100 % of control"},
      {"measurement": "T/C", "setting": "dose: 6.25 mg/kg/injection, schedule: Q01DX009 (ip), vehicle: water", "result": "102 % of control and 105 % of control"},
      {"measurement": "T/C", "setting": "dose: 12.5 mg/kg/injection, schedule: Q01DX009 (ip), vehicle: water", "result": "101 % of control and 108 % of control"},
      {"measurement": "T/C", "setting": "dose: 25.0 mg/kg/injection, schedule: Q01DX009 (ip), vehicle: water", "result": "121 % of control and 111 % of control"},
      {"measurement": "T/C", "setting": "dose: 50.0 mg/kg/injection, schedule: Q01DX009 (ip), vehicle: water", "result": "94 % of control"}
    ]},
    {"smiles": "CC(N)(CCOCc1ccccc1)C(=O)O", "note": "(stereo not given)", "values": [
      {"measurement": "T/C", "setting": "[3]", "result": "97 % of control"},
      {"measurement": "T/C", "setting": "[4]", "result": "103 % of control"},
      {"measurement": "T/C", "setting": "[5]", "result": "96 % of control"},
      {"measurement": "T/C", "setting": "[6]", "result": "101 % of control"},
      {"measurement": "T/C", "setting": "[7]", "result": "103 % of control"},
      {"measurement": "T/C", "setting": "[8]", "result": "101 % of control"}
    ]},
    {"smiles": "O=C1CCC(Cl)S(=O)(=O)c2ccccc21", "note": "(stereo not given)", "values": [
      {"measurement": "T/C", "setting": "[3]", "result": "97 % of control"},
      {"measurement": "T/C", "setting": "[5]", "result": "105 % of control"},
      {"measurement": "T/C", "setting": "[7]", "result": "94 % of control"}
    ]},
    {"smiles": "CCC(=O)NCCc1ccccc1", "values": [
      {"measurement": "T/C", "setting": "[4]", "result": "100 % of control"},
      {"measurement": "T/C", "setting": "[5]", "result": "97 % of control"},
      {"measurement": "T/C", "setting": "[6]", "result": "100 % of control"},
      {"measurement": "T/C", "setting": "[7]", "result": "97 % of control"}
    ]},
    {"smiles": "CCCCn1cnc2c(=S)nc(N)[nH]c21", "values": [
      {"measurement": "T/C", "setting": "dose: 25.0 mg/kg/injection, schedule: Q01DX009 (ip), vehicle: saline with Tween-80", "result": "162 % of control"},
      {"measurement": "T/C", "setting": "dose: 50.0 mg/kg/injection, schedule: Q01DX009 (ip), vehicle: saline with Tween-80", "result": "171 % of control"},
      {"measurement": "T/C", "setting": "dose: 50.0 mg/kg/injection, schedule: Q04DX003 (ip), vehicle: saline with Tween-80", "result": "157 % of control"}
    ]},
    {"smiles": "NCCNC(=O)c1ccccc1", "values": [
      {"measurement": "T/C", "setting": "dose: 100.0 mg/kg/injection, schedule: Q04DX003 (ip), vehicle: saline", "result": "103 % of control"},
      {"measurement": "T/C", "setting": "dose: 200.0 mg/kg/injection, schedule: Q04DX003 (ip), vehicle: saline", "result": "101 % of control"},
      {"measurement": "T/C", "setting": "dose: 400.0 mg/kg/injection, schedule: Q04DX003 (ip), vehicle: saline", "result": "100 % of control"}
    ]},
    {"smiles": "O=C(CCCC1CCCCC1)Cc1ccccc1", "values": [
      {"measurement": "T/C", "setting": "dose: 100.0 mg/kg/injection, schedule: Q04DX003 (ip), vehicle: acetone", "result": "96 % of control"},
      {"measurement": "T/C", "setting": "dose: 200.0 mg/kg/injection, schedule: Q04DX003 (ip), vehicle: acetone", "result": "94 % of control"},
      {"measurement": "T/C", "setting": "dose: 400.0 mg/kg/injection, schedule: Q04DX003 (ip), vehicle: acetone", "result": "102 % of control"}
    ]},
    {"smiles": "O=S(=O)(F)/C=C/c1ccccc1", "values": [
      {"measurement": "T/C", "setting": "[1]", "result": "88 % of control"},
      {"measurement": "T/C", "setting": "[2]", "result": "97 % of control"}
    ]},
    {"smiles": "CC(=O)N(O)c1ccc2c(c1)Cc1ccccc1-2", "values": [
      {"measurement": "T/C", "setting": "[4]", "result": "98 % of control"},
      {"measurement": "T/C", "setting": "[6]", "result": "101 % of control"},
      {"measurement": "T/C", "setting": "[8]", "result": "101 % of control"}
    ]}
  ]
}
